Source: patent publication US20240270762A1, “PENICILLIN-BINDING PROTEIN INHIBITORS” (priority 2021, published 2024)
pEC50, pIC50: −log10 of the molar value. In brackets after ≈: the same amount, converted by molar mass.

Legend:
[1] = molecular target: T1, PBP3 from Escherichia coli (K-12) (Escherichia coli, UniProt P0AD68); assay: Bocillin-FL fluorescence polarization competition binding, E. coli PBP3
T1 construct: made in house
Source text: To determine the ability of boronic acid-based test PBP inhibitors to bind Penicillin Binding Proteins (PBPs), Bocillin-FL (fluorescently-labeled penicillin V; ThermoFisher Scientific) was used in a fluorescence polarization (FP) competition binding assay to assess inhibitor binding to PBP3 from Escherichia coli (K-12), PBP3 from Pseudomonas aeruginosa (PAO1), PBP1a and PBP3 from Acinetobacter baumannii (ATCC 19606), and PBP2 from Neisseria gonorrhoeae (FA19). PBPs were cloned and purified as described previously (E. coli PBP3, King, D. T, et al., ACS Infectious Diseases 2015, 1, 175-184; P. aeruginosa PBP3, Han et. al., PNAS 2010, 107 (51), 22002-22007; A. baumannii PBPs, Penwell et. al., Antimicrob. Agents Chemother. 2015, 59 (3), 1680-1689; N. gonorrhoeae PBP2, Singh et. al., J. Biol. Chem. 2019, 294 (38), 14020-14032). To establish assay conditions for competition binding, enzyme titration/saturation binding experiments were initially performed. Bocillin-FL was prepared at 0.2 μM in a buffer comprised of 50 mM Hepes (pH 8.0), 300 mM NaCl and 10% (v/v) glycerol for reactions with E. coli, P. aeruginosa and N. gonorrhoeae PBPs, and 25 mM Tris (pH 8.0), 200 mM NaCl, 10% (v/v) glycerol and 0.005% (v/v) Tween 20 for reactions with A. baumannii PBPs. Saturation binding was performed by mixing 40 μl of PBP solutions ranging in concentrations from 0-24 μM with 40 μl of the 0.2 μM Bocillin-FL solution, in individual wells of a black 384-well microplate. FP was measured immediately upon mixing (Excitation, 490 nm; Emission, 520 nm; g-factor, 0.96), using a Cytation3 (BioTek) microplate reader and measured continuously for up to 120 minutes. The FP response stabilized after 15 minutes for P. aeruginosa and A. baumannii PBP3, 30 minutes for E. coli PBP3 and A. baumannii PBP1a, and less than 1 minute for N. gonorrhoeae PBP2. […] The competition binding assay (80 μl final volume) was validated using beta-lactams and PBPs at final concentrations of: 1.5 μM for E. coli PBP3; 0.75 μM for P. aeruginosa PBP3; 1 μM for A. baumannii PBP1a; 0.2 μM for A. baumannii PBP3; and 0.25 μM for N. gonorrhoeae PBP2. Bocillin-FL was at 0.1 μM (0.05 μM with A. baumannii PBP1a) and beta-lactam concentrations ranged from 0-1,000 μM. E. coli PBP3 was incubated with increasing concentrations of ampicillin in a black 384-well microplate (Corning) for 30 minutes. P. aeruginosa PBP3 was incubated for 15 minutes with aztreonam, whereas A. baumannii PBP1a and PBP3 were incubated for 15 minutes with meropenem, and then Bocillin-FL was added followed immediately by the FP measurement for up to 60 minutes. […] The beta-lactam potency was reported as the concentration of beta-lactam required to reduce the amount of PBP bound-Bocillin-FL by 50% (EC50). […] The EC50 of aztreonam was determined to be <0.5 μM for P. aeruginosa PBP3. […] Binding assays for boronic acid PBP inhibitors were performed in an identical fashion for the respective PBPs.

[2] = molecular target: T2, PBP3 from Pseudomonas aeruginosa (PAO1) (Pseudomonas aeruginosa, UniProt G3XD46); assay: Bocillin-FL fluorescence polarization competition binding, P. aeruginosa PBP3; conditions: Binding affinity to P. aeruginosa PBP3; fluorescence polarization competition binding assay using Bocillin-FL; read-out: P. aeruginosa PBP3 Potency
T2 construct: made in house
Summary of the method: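 Purified PBPs pre-incubated with inhibitor (E. coli PBP3 1.5 μM, 30 min; P. aeruginosa PBP3 0.75 μM, A. baumannii PBP1a 1 μM and PBP3 0.2 μM, 15 min), then Bocillin-FL 0.1 μM (0.05 μM for PBP1a) added; FP read up to 60 min. EC50 = concentration halving bound Bocillin-FL.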

E. coli ATCC 25922 = assay: microbe, parasite or virus in culture; type: cell-based; conditions: Escherichia coli, ATCC25922, read-out: MIC E. coli 25922
E. coli AG100A = assay: Broth microdilution MIC in CAMHB; type: cell-based; conditions: Escherichia coli, read-out: MIC E. coli AG100A
K. pneumoniae 848844 = assay: microbe, parasite or virus in culture; type: cell-based; conditions: Klebsiella pneumoniae, 848844, read-out: MIC K. pneumoniae 848844
A. baumannii ATCC 19606 = assay: microbe, parasite or virus in culture; type: cell-based; conditions: Acinetobacter baumannii, ATCC19606, read-out: MIC, A. baumannii ATCC 19606
[3] = system: P. aeruginosa (ΔmexAB-oprM); assay: Broth microdilution MIC in CAMHB; type: cell-based; conditions: Pseudomonas aeruginosa; read-out: MIC P. aeruginosa ΔmexAB-oprM
[4] = system: N. gonorrhoeae ATCC 49226; assay: Liquid broth MIC in Fastidious broth; conditions: Neisseria gonorrhoeae, ATCC49226, read-out: Minimum Inhibitory Concentration (MIC), N. gonorrhoeae ATCC 49226
N. gonorrhoeae WHO M = assay: Liquid broth MIC in Fastidious broth; conditions: Neisseria gonorrhoeae, read-out: Minimum Inhibitory Concentration (MIC), N. gonorrhoeae WHO M
N. gonorrhoeae WHO X = assay: Liquid broth MIC in Fastidious broth; conditions: Neisseria gonorrhoeae, read-out: Minimum Inhibitory Concentration (MIC), N. gonorrhoeae WHO X
N. gonorrhoeae WHO Q = assay: Liquid broth MIC in Fastidious broth; conditions: Neisseria gonorrhoeae, read-out: Minimum Inhibitory Concentration (MIC), N. gonorrhoeae WHO Q
N. gonorrhoeae CDC-0197 = assay: Liquid broth MIC in Fastidious broth; conditions: Neisseria gonorrhoeae, CDC0197, read-out: Minimum Inhibitory Concentration (MIC), N. gonorrhoeae CDC-0197

T2 sequence (G3XD46 whole entry): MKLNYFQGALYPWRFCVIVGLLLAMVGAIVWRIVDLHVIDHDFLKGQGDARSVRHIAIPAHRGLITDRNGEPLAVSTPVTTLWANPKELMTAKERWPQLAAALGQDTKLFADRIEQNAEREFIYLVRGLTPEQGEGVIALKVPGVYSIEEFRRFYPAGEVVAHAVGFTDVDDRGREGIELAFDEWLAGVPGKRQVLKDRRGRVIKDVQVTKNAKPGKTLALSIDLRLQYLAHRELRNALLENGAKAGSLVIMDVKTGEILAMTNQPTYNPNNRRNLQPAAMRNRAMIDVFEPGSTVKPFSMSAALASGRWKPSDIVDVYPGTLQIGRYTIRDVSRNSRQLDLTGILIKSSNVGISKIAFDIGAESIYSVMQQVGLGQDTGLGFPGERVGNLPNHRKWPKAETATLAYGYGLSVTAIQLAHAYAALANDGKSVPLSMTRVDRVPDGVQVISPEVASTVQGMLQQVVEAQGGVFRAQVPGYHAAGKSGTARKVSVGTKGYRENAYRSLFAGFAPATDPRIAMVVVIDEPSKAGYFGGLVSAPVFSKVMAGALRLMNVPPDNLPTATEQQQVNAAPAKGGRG
T1 sequence (P0AD68 1-577): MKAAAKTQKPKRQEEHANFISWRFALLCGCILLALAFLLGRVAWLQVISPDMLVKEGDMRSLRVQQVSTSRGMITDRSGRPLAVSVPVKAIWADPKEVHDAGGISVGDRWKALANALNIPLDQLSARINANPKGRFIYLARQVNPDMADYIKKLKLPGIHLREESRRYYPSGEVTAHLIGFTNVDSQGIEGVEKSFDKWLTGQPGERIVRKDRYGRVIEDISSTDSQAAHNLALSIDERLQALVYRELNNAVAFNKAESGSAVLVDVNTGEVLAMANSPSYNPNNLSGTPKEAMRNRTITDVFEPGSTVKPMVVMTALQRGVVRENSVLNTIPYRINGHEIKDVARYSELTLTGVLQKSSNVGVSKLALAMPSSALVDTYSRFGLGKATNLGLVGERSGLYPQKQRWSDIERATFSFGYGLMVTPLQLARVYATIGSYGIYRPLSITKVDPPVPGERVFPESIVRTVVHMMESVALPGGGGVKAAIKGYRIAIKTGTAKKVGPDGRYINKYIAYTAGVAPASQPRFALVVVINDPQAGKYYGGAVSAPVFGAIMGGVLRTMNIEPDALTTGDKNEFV

SMILES	pEC50 [1]	pIC50 [2]	MIC (E. coli ATCC 25922) [µg/mL]	MIC (E. coli AG100A) [µg/mL]	MIC (K. pneumoniae 848844) [µg/mL]	MIC (A. baumannii ATCC 19606) [µg/mL]	MIC [3] [µg/mL]	MIC [4] [µg/mL]	MIC (N. gonorrhoeae WHO M) [µg/mL]	MIC (N. gonorrhoeae WHO X) [µg/mL]	MIC (N. gonorrhoeae WHO Q) [µg/mL]	MIC (N. gonorrhoeae CDC-0197) [µg/mL]
Nc1nc(C(=O)N[C@@H](C(=O)N[C@H]2Cc3cccc(C(=O)O)c3OB2O)c2ccc(P(=O)(O)O)cc2)cs1 (racemic) [Example 51, (R)-3-((S)-2-(2-aminothiazole-4-carboxamido)-2-(4-phosphonophenyl)acetamido)-2-hydroxy-3,4-dihydro-2H-benzo[e][1,2]oxaborinine-8-carboxylic acid and (R)-3-((R)-2-(2-aminothiazole-4-carboxamido)-2-(4-phosphonophenyl)acetamido)-2-hydroxy-3,4-dihydro-2H-benzo[e][1,2]oxaborinine-8-carboxylic acid]	4.30 to 5.00	> 5.00	> 128	32 to 64 (≈ 58.6 to 117 µM)	> 128	> 128	32 to 64 (≈ 58.6 to 117 µM)	< 1	< 1	4 to 8 (≈ 7.32 to 14.6 µM)	1 to 2 (≈ 1.83 to 3.66 µM)	< 1
CN1CCC[C@@H]1C(=O)N[C@@H](C(=O)N[C@H]1Cc2cccc(C(=O)O)c2OB1O)c1ccc(P(=O)(O)O)cc1 (racemic) [Example 54, (R)-2-hydroxy-3-((S)-2-((R)-1-methylpyrrolidine-2-carboxamido)-2-(4-phosphonophenyl)acetamido)-3,4-dihydro-2H-benzo[e][1,2]oxaborinine-8-carboxylic acid and (R)-2-hydroxy-3-((R)-2-((R)-1-methylpyrrolidine-2-carboxamido)-2-(4-phosphonophenyl)acetamido)-3,4-dihydro-2H-benzo[e][1,2]oxaborinine-8-carboxylic acid]	3.60 to 4.30	3.60 to 4.30	> 128	> 128	> 128	> 128	> 128	16 to 32 (≈ 30.1 to 60.2 µM)	4 to 8 (≈ 7.53 to 15.1 µM)	16 to 32 (≈ 30.1 to 60.2 µM)	16 to 32 (≈ 30.1 to 60.2 µM)	4 to 8 (≈ 7.53 to 15.1 µM)
CCN1CCN(C(=O)N[C@H](C(=O)N[C@H]2Cc3ccc(F)c(C(=O)O)c3OB2O)c2ccc(P(=O)(O)O)cc2)C(=O)C1=O (single isomer, unassigned) [Example 9]	3.60 to 4.30	4.30 to 5.00	> 128	> 128	> 128	> 128	> 128	1 to 2 (≈ 1.65 to 3.3 µM)	< 1	1 to 2 (≈ 1.65 to 3.3 µM)	1 to 2 (≈ 1.65 to 3.3 µM)	< 1
CCN1CCN(C(=O)N[C@@H](C(=O)N[C@H]2Cc3ccc(F)c(C(=O)O)c3OB2O)c2ccc(P(=O)(O)O)cc2)C(=O)C1=O (single isomer, unassigned) [Example 10]	> 5.00	> 5.00	> 128	32 to 64 (≈ 52.8 to 106 µM)	> 128	32 to 64 (≈ 52.8 to 106 µM)	32 to 64 (≈ 52.8 to 106 µM)	< 1	< 1	< 1	< 1	< 1
CS(=O)(=O)N1CCN(C(=O)N[C@@H](C(=O)N[C@H]2Cc3cccc(C(=O)O)c3OB2O)c2ccc(P(=O)(O)O)c(F)c2F)C1=O (single isomer, unassigned) [Example 13]	> 5.00	> 5.00	> 128	8 to 16 (≈ 12.4 to 24.8 µM)	> 128	32 to 64 (≈ 49.5 to 99 µM)	32 to 64 (≈ 49.5 to 99 µM)	< 1	< 1	< 1	< 1	< 1
CS(=O)(=O)N1CCN(C(=O)N[C@@H](C(=O)N[C@H]2Cc3cccc(C(=O)O)c3OB2O)c2ccc(P(=O)(O)O)c(F)c2)C1=O (single isomer, unassigned) [Example 15]	> 5.00	> 5.00	32 to 64 (≈ 50.9 to 102 µM)	8 to 16 (≈ 12.7 to 25.5 µM)	> 128	32 to 64 (≈ 50.9 to 102 µM)	32 to 64 (≈ 50.9 to 102 µM)	< 1	< 1	< 1	< 1	< 1
CS(=O)(=O)N1CCN(C(=O)N[C@@H](C(=O)N[C@H]2Cc3cccc(C(=O)O)c3OB2O)c2cc(F)c(P(=O)(O)O)c(F)c2)C1=O (single isomer, unassigned) [Example 18]	> 5.00	> 5.00	32 to 64 (≈ 49.5 to 99 µM)	8 to 16 (≈ 12.4 to 24.8 µM)	> 128	32 to 64 (≈ 49.5 to 99 µM)	32 to 64 (≈ 49.5 to 99 µM)	< 1	< 1	< 1	< 1	< 1
CS(=O)(=O)N1CCN(C(=O)N[C@@H](C(=O)N[C@H]2Cc3ccc(F)c(C(=O)O)c3OB2O)c2ccc(P(=O)(O)O)c(F)c2)C1=O (single isomer, unassigned) [Example 19]	> 5.00	> 5.00	> 128	32 to 64 (≈ 49.5 to 99 µM)	> 128	> 128	32 to 64 (≈ 49.5 to 99 µM)	< 1	< 1	< 1	< 1	< 1
